{
  "source": "patent US9884046B1",
  "about": "“Method of treating lung cancer” (Macau University of Science and Technology, priority 2017, dated 2018)",
  "key": {"H358 cells [1]": {"test_system": "H358 cells", "assay": "MTT cell viability assay, H358", "format": "cell-based", "conditions": "Homo sapiens, NCI-H358, H358 (KRAS G12C)", "description": "(§1) H2122, H460 and H358 cells were purchased from ATCC and cultivated with Roswell Park Memorial Institute (RPMI) 1640 medium supplemented with 10% fetal bovine serum (Gibco, Big Cabin, Oklahoma, Me., USA), 100 U/mL penicillin and 100 μg/mL streptomycin (Gibco, Big Cabin, Oklahoma, Me., USA). All the cells were cultivated at 37° C. with 5% CO2 incubator. Cells were seeded on a 96-well microplate with 3000, 4000 or 5000 cells/well, and were cultured overnight for cell adhesion. Different concentrations of compound 0375-0604 were added to the microplates, and the plates were incubated for 24, 48 or 72 h. Each dosage was repeated as triplicate. 10 μL MTT (5 mg/mL) solution was added to every well. After incubation for 4 h, 100 μL dimethyl sulfoxide (DMSO) was added to each well. After shaking for 15 min, the absorbance of the plate was measured at 570 nm (absorbance) and 650 nm (reference) by a microplate reader (Tecan, Morrisville, N.C., USA).\n(§2) The cytotoxicity of compound 0375-0604 was determined by MTT assay. The effect of compound 0375-0604 on three NSCLC cell lines, H2122, H358 and H460 was examined. H2122, H358 and H460 are harboring KRAS-activating mutations. H2122 and H358 cells have mutant KRAS that includes an amino acid substitution from a glycine to a cysteine at codon or position 12 (i.e. mutant KRAS ^G12C). H460 cells have mutant KRAS that includes an amino acid substitution from a glutamine to a histidine at codon or position 61 (i.e. mutant KRAS Q61H).\n(§3) Cells were incubated with compound 0375-0604 at different concentrations (0, 25, 50, 100 μM) for 24, 48, and 72 h. As shown in FIGS. 3A-3C, the cell viability of three NSCLC cell lines was decreased by the treatment of compound 0375-0604 in a dose-dependent and time-dependent manner."}, "KRAS": {"target": "KRAS (Homo sapiens, UniProt P01116)", "sequence (P01116 1-188 isoform P01116-2)": "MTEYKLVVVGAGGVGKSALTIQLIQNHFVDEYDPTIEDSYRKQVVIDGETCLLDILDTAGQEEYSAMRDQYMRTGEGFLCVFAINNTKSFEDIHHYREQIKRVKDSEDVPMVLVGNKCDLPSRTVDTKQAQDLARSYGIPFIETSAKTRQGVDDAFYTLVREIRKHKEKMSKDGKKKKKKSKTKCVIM", "assay": "Bio-layer interferometry, His-KRAS on Ni-NTA biosensors", "format": "binding", "conditions": "BLI", "description": "The interaction between KRAS and compound 0375-0604 was determined by bio-layer interferometry using an Octet Red 96 instrument (FortéBio Inc.). Ni-NTA Biosensors tips (FortéBio, Inc., Menlo Park, Calif.) were prewetted with PBS to establish a baseline before immobilization. His-KRAS was then immobilized onto Ni-NTA Biosensors. The experiments comprised five steps: (1) baseline acquisition, (2) KRAS loading onto the sensor, (3) second baseline acquisition, (4) association of compound 0375-0604 for the measurement of kon, and (5) dissociation of compound 0375-0604 for the measurement of koff. Six concentrations of compound 0375-0604 were used for detection. The association and dissociation plot and kinetic constants were obtained with FortéBio data analysis software. Equilibrium dissociation constants (Kd) were calculated in the ratio of koff to kon.\nBio-layer interferometry assay (BLI), a label-free technology, was used to measure the biomolecular interaction between KRAS and compound 0375-0604. In this study, the His-labeled KRAS protein was immobilized on the Ni-NTA (NTA) Biosensors. […] Experimental data for association and dissociation are represented on the left and right side."}, "GTP-bound KRAS": {"test_system": "GTP-bound KRAS", "assay": "RAS-binding domain pull-down (RBD:PD) assay", "format": "cell-based", "conditions": "H358 cells, 24 h, 50 and 100 μM", "description": "RAS activity was detected using the RAS Activation Assay Kit from Upstate-Millipore. The whole cell lysates were incubated with Glutathione S-transferase-[…]-binding domain (GST-RBD) and glutathione beads for 1 h. Agarose beads were pelleted by centrifugation and washed 3 times with Mg^2+ lysis buffer. Agarose beads were re-suspended in loading buffer. Samples were analyzed by the western blotting as previously described and blots probed using anti-KRAS antibody (sc-30, SANTA).\nKRAS mutant cells (H358) were treated with compound 0375-0604 for 24 h. After 24 h treatment, cells were collected and determined by a RAS-binding domain pull-down (RBD:PD) assay and immunoblotting with a KRAS-specific antibody."}, "H358 cells [2]": {"test_system": "H358 cells", "assay": "Cell cycle analysis by PI staining and flow cytometry", "format": "cell-based", "conditions": "H358 cells, 50, 100 μM, 24 h", "description": "H358 cells were plated with 2.0×10^5 cells/well at a 6-well plate and cultured overnight for attachment. After treatment with compound 0375-0604 at 0, 50, 100 μM for 24 h, all cells were harvested by trypsin, and centrifuged at 1000 rpm, at room temperature for 5 min. Cells pellets were re-suspended in 70% ethanol at 4° C. for 30 min. Cells were centrifuged at 1000 rpm for 5 min to remove all the ethanol. Each cell pellet was re-suspended in 300 μL Propidium iodide (PI) staining solution at 37° C. for 30 min in the dark. The cells were then washed twice with phosphate-buffered saline (PBS). Finally, cells were re-suspended in 300 μL PBS and transferred to the flow cytometer (BD FACS Aria III).\nH358 cells were treated with compound 0375-0604 at different concentrations (0, 50, 100 μM) for 24 h, and stained with Propidium iodide (PI). The samples were analyzed by flow cytometry."}, "H460 cells": {"test_system": "H460 cells", "assay": "MTT cell viability assay, H460", "format": "cell-based", "conditions": "Homo sapiens, NCI-H460, H460 (KRAS Q61H)", "description": "as §1, §2, §3"}, "[3]": {"test_system": "phosphorylation of CRAF (p-CRAF)", "assay": "Western blot of KRAS downstream signaling", "format": "cell-based", "conditions": "H2122, H460 and H358 cells, 24, 48 and 72 h, versus untreated cells", "description": "After treatment with compound 0375-0604 for 24 h, 48 h or 72 h, radioimmunoprecipitation assay (RIPA) lysis buffer which contains protease and phosphatase inhibitors, was added to extract the whole cell protein. Bio-Rad DC™ protein assay kit (Bio-Rad, Philadelphia, Pa., USA) was used to quantify the protein. 30 μg protein lysate were loaded and separated by 10% sodium dodecyl sulfate (SDS)-polyacrylamide gel electrophoresis and transferred to a nitrocellulose (NC) membrane. The membranes were incubated with the primary antibody (1:2000) and then with a fluorescence-conjugated secondary antibody (1:10000). Glyceraldehyde 3-phosphate dehydrogenase (GAPDH) was used as the loading control for normalization. The signal of the membranes was scanned with a LI-COR Odyssey Scanner (Belfast, Me., USA).\nUntreated cells were used as control."}, "H2122 cells": {"test_system": "H2122 cells", "assay": "MTT cell viability assay, H2122", "format": "cell-based", "conditions": "Homo sapiens, NCI-H2122, H2122 (KRAS G12C)", "description": "as §1, §2, §3"}},
  "data": [
    {"smiles": "Nc1ccc(Sc2nc3ccccc3s2)c(Cl)c1", "note": "[compound 0375-0604]", "values": [
      {"measurement": "IC50", "setting": "H358 cells [1]; 24 h", "value": "> 100", "unit": "µM"},
      {"measurement": "IC50", "setting": "H358 cells [1]; 48 h", "value": "> 100", "unit": "µM"},
      {"measurement": "IC50", "setting": "H358 cells [1]; 72 h", "value": "63.8 ± 3.89", "unit": "µM"},
      {"measurement": "koff", "setting": "KRAS; 1.56-50 μM compound", "value": "2.12E-01", "unit": "S^−1"},
      {"measurement": "kon", "setting": "KRAS; 1.56-50 μM compound", "value": "1.83E+04", "unit": "M^−1 S^−1"},
      {"measurement": "Kd", "setting": "KRAS; calculated as ratio of koff to kon", "value": 11.6, "unit": "µM"},
      {"measurement": "level of GTP-bound KRAS", "setting": "GTP-bound KRAS", "value": "inhibited"},
      {"measurement": "percentage of cells in G0/G1 phase", "setting": "H358 cells [2]", "value": "slightly decreased"},
      {"measurement": "percentage of cells in G2/M phase", "setting": "H358 cells [2]", "value": "increased"},
      {"measurement": "IC50", "setting": "H460 cells; 24 h", "value": "> 100", "unit": "µM"},
      {"measurement": "IC50", "setting": "H460 cells; 48 h", "value": "100 ± 13.3", "unit": "µM"},
      {"measurement": "IC50", "setting": "H460 cells; 72 h", "value": "66 ± 11.8", "unit": "µM"},
      {"measurement": "level of phosphorylation of CRAF (p-CRAF)", "setting": "[3]", "value": "decreased"},
      {"measurement": "IC50", "setting": "H2122 cells; 24 h", "value": "> 100", "unit": "µM"},
      {"measurement": "IC50", "setting": "H2122 cells; 48 h", "value": "> 100", "unit": "µM"},
      {"measurement": "IC50", "setting": "H2122 cells; 72 h", "value": "39.6 ± 3.09", "unit": "µM"}
    ]}
  ]
}
